Laboratory results published in paper PMC6422167 (ChemMedChem, 2018).
Like-named read-outs stand apart in the source and are kept apart here.

How the values were obtained:
σ1 receptor [1] = target: T1, σ1 receptor (Cavia porcellus, UniProt Q60492); experiment: σ1 receptor binding affinity, competition against; design: species or system guinea pig; conditions: for Selectivity ratio VAChT/ σ1: ratio of Ki values, Table 2; for Ki: read-out: Ki σ1, homogenate of guinea pig brain, tested as oxalate, mean ± SD
σ2 receptor [2] = target: T2, σ2 receptor (Rattus norvegicus, UniProt Q5U3Y7); experiment: σ2 receptor binding affinity, competition against [3H]DTG; conditions: for Selectivity ratio VAChT/ σ2: ratio of Ki values, Table 2; for Ki: read-out: Ki σ2, homogenate of rat liver, tested as oxalate, mean ± SD
T2 sequence (Q5U3Y7 1-176): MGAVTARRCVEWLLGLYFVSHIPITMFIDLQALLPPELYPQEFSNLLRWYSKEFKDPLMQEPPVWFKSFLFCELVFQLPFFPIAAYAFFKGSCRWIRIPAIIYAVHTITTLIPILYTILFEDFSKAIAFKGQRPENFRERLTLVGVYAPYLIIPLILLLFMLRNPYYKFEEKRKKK

σ1 receptor [3] = target: T1, σ1 receptor; conditions: read-out: Ki σ1, cited from earlier work
human VAChT = target: T3, human VAChT (Homo sapiens, UniProt Q16572); conditions: read-out: Ki VAChT; reference ligand; cited from earlier work
T3 sequence (Q16572 1-532): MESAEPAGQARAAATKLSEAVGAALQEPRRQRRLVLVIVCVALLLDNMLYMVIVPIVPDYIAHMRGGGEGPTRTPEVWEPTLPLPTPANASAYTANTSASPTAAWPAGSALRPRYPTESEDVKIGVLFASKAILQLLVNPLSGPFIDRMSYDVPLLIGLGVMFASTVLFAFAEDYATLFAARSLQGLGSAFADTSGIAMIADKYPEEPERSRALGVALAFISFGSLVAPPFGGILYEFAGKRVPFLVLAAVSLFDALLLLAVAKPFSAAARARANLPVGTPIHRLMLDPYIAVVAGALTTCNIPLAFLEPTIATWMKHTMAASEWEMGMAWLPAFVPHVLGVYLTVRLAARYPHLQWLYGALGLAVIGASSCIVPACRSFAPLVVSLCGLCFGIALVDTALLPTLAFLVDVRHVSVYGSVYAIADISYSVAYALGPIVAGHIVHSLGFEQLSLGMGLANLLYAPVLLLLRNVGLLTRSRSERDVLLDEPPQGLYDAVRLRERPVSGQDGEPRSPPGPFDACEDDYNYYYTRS

σ2 receptor [4] = target: T2, σ2 receptor; conditions: read-out: Ki σ2; reference σ1 ligand; cited from earlier work

T1 sequence (Q60492 whole entry): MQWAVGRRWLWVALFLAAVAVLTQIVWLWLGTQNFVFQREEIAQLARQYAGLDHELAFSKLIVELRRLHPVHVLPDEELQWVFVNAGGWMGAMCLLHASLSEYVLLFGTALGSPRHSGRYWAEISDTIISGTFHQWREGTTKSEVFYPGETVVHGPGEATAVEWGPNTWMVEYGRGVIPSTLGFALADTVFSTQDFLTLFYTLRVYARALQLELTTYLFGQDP

Compound | Selectivity ratio VAChT/ σ1 (σ1 receptor [1]) | Ki (σ1 receptor [1]) | Selectivity ratio VAChT/ σ2 (σ2 receptor [2]) | Ki (σ2 receptor [2]) | Ki (σ1 receptor [3]; reference ligand) | Ki (human VAChT) | Ki (σ2 receptor [4]) | Ki (σ1 receptor [3]; reference σ1 ligand)
CS(=O)(=O)c1ccc(C(=O)C2CCN(C3Cc4ccccc4CC3O)CC2)cc1 (racemic) [(±)-7, (±)-(1-(3-Hydroxy-1,2,3,4-tetrahydronaphthalen-2-yl)piperidin-4-yl)(4-(methyl-sulfonyl)phenyl)methanone] | 3.1 | 16.5 ± 2.1 nM | > 185 | > 1000 nM |  |  |  | 
CSc1ccc(C(=O)C2CCN(C3Cc4ccccc4CC3O)CC2)cc1 (racemic) [(±)-8, (±)-(1-(3-Hydroxy-1,2,3,4-tetrahydronaphthalen-2-yl)piperidin-4-yl)(4-(methylthio)phenyl)methanone] | 7.2 | 17.2 ± 4 nM | > 420 | > 1000 nM |  |  |  | 
O=C(c1ccc(SCCF)cc1)C1CCN(C2Cc3ccccc3CC2O)CC1 (racemic) [(±)-14a, (±)-(4-((2-Fluoroethyl)thio)phenyl)(1-(3-hydroxy-1,2,3,4-tetrahydronaph-thalen-2-yl)piperidin-4-yl)methanone] | 7.0 |  | > 420 |  |  |  |  | 
O=C(c1ccc(SCCCF)cc1)C1CCN(C2Cc3ccccc3CC2O)CC1 (racemic) [(±)-14b, (±)-(4-((3-Fluoropropyl)thio)phenyl)(1-(3-hydroxy-1,2,3,4-tetrahydronaph-thalen-2-yl)piperidin-4-yl)methanone] | 17.7 | 40.8 ± 4.1 nM | > 430 | > 1000 nM |  |  |  | 
O[C@@H]1Cc2cccc(OCCF)c2C[C@H]1N1CCC(c2ccccc2)CC1 [(-)-FEOBV] | 10.7 |  |  |  | 209 ± 94 nM | 19.6 ± 1.1 nM |  | 
O=C(Cc1ccccc1F)NC1CCC(Cc2ccccc2)CC1 (centres unmarked) [YUN-122, N-(4-benzylcyclohexyl)-2-(2-fluorophenyl)acetamide] |  |  |  |  |  |  | 667 ± 98 nM | 3.6 ± 1.1 nM
(-)-vesamicol [reference compound] |  |  |  | 34.5 ± 2 nM |  |  |  | 
